Laboratory results as given in ChEMBL document CHEMBL1152117, “A versatile synthesis of 2-methoxyestradiol, an endogenous metabolite of estradiol which inhibits tubulin polymerization by binding to the colchicine binding site” (Bioorg Med Chem Lett, 1994).
Active and inactive are the calls of the source. No cut-off for these calls is given here.

What was measured:
[1] = system: Mus musculus; test: In vivo inhibition of neovascularization of solid tumors when administered orally in mice; Active; type: functional, organism-based
[2] = system: Mus musculus; test: In vivo inhibition of growth of solid tumors when administered orally in mice; Active; type: functional, organism-based

## COc1cc2c(cc1O)CC[C@@H]1[C@@H]2CC[C@]2(C)[C@@H](O)CC[C@@H]12
[1]
  Activity: Active
[2]
  Activity: Active
